According to patent US7223862B2, “Pyridone compounds useful for producing pyridine compounds” (Sumitomo Chemical Company, Limited, priority 2001, dated 2007):

Tests used:
[1] = system: velvetleaf; test: Reference test example 2: soil surface treatment, herbicidal activity; type: in vivo; settings: soil surface spray of emulsifiable concentrate, 500 g/ha, examined 19 days after spraying, greenhouse
Text: (§1) Cylindrical plastic pots, each of which has a diameter of 10 cm and a depth of 10 cm, were filled with soil, and then seeded with ivyleaf morning glory and velvetleaf. Each of the compounds 1, 2, 3, 6, 8, 12, 15, 16, 19, 21, 40, 59 and 76 was formulated into an emulsifiable concentrate according to Reference formulation example 2, and diluted with water. The dilution was uniformly sprayed over the soil surface with a sprayer at a rate of 1000 liters per hectare. After spraying, the test plants were grown in the greenhouse for 19 days, and the herbicidal activity was examined.

[2] = system: ivyleaf morning glory; test: as above; type: in vivo; settings: soil surface spray of emulsifiable concentrate, 500 g/ha, examined 19 days after spraying, greenhouse
Text: as §1

[3] = system: velvetleaf; test: Reference test example 1: foliar treatment, herbicidal activity; type: in vivo; settings: foliage spray of emulsifiable concentrate, 125 g/ha, examined 12 days after spraying, greenhouse
Experimental: as §1, with “velvetleaf. The test plants were grown in a greenhouse for 10 days. Then, each” for “velvetleaf. Each”, “with water containing a spreading agent.” for “with water.”, “the foliage of the test plants” for “the soil surface”, “for 12” for “for 19”

[4] = system: ivyleaf morning glory; test: as above; type: in vivo; settings: foliage spray of emulsifiable concentrate, 125 g/ha, examined 12 days after spraying, greenhouse
Experimental: as §1, with “velvetleaf. The test plants were grown in a greenhouse for 10 days. Then, each” for “velvetleaf. Each”, “with water containing a spreading agent.” for “with water.”, “the foliage of the test plants” for “the soil surface”, “for 12” for “for 19”

| melting point [°C] | Structure (SMILES) | herbicidal activity (control of growth) [1] | herbicidal activity (control of growth) [2] | herbicidal activity (control of growth) [3] | herbicidal activity (control of growth) [4] |
| --- | --- | --- | --- | --- | --- |
|  | Cn1c(C(F)(F)F)cc(=O)n(-c2cc(Oc3cccnc3OCC(=O)O)c(Cl)cc2F)c1=O [Compound 1] | perfectly controlled the growth | perfectly controlled the growth | perfectly controlled the growth | perfectly controlled the growth |
|  | COC(=O)COc1ncccc1Oc1cc(-n2c(=O)cc(C(F)(F)F)n(C)c2=O)c(F)cc1Cl [Compound 2, 3-[2-chloro-4-fluoro-5-(3-methyl-2,6-dioxo-4-trifluoromethyl-1,2,3,6-tetrahydropyrimidin-1-yl)phenoxy]-2-(methoxycarbonylmethoxy)pyridine] | perfectly controlled the growth | perfectly controlled the growth | perfectly controlled the growth | perfectly controlled the growth |
|  | CCOC(=O)COc1ncccc1Oc1cc(-n2c(=O)cc(C(F)(F)F)n(C)c2=O)c(F)cc1Cl [Compound 3, 3-[2-chloro-4-fluoro-5-(3-methyl-2,6-dioxo-4-trifluoromethyl-1,2,3,6-tetrahydropyrimidin-1-yl)phenoxy]-2-(ethoxycarbonylmethoxy)pyridine] | perfectly controlled the growth | perfectly controlled the growth | perfectly controlled the growth | perfectly controlled the growth |
|  | COC(=O)COc1ncccc1Oc1cc(-n2c(=O)cc(C(F)(F)F)n(C)c2=O)c(F)cc1Br [Compound 21] | perfectly controlled the growth | perfectly controlled the growth | perfectly controlled the growth | perfectly controlled the growth |
|  | COC(=O)COc1ncccc1Oc1cc(-n2c(=O)cc(C(F)(F)F)n(C)c2=O)c(F)cc1C#N [Compound 40] | perfectly controlled the growth | perfectly controlled the growth | perfectly controlled the growth | perfectly controlled the growth |
|  | COC(=O)COc1ncccc1Oc1cc(-n2c(=O)cc(C(F)(F)F)n(C)c2=O)c(F)cc1[N+](=O)[O-] [Compound 59] | perfectly controlled the growth | perfectly controlled the growth | perfectly controlled the growth | perfectly controlled the growth |
| 180.8 | Cn1c(C(F)(F)F)cc(=O)n(-c2cc(Oc3ccc[nH]c3=O)c(Cl)cc2F)c1=O [Compound 76, 3-[2-chloro-4-fluoro-5-(3-methyl-2,6-dioxo-4-trifluoromethyl-1,2,3,6-tetrahydropyrimidin-1-yl)phenoxy]-1H-pyridin-2-one] | perfectly controlled the growth | perfectly controlled the growth | perfectly controlled the growth | perfectly controlled the growth |
